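Compound exposure: 48 hours, 5 concentrations, 96-well plates. GI50 = concentration required for 50% inhibition of growth. TGI: total growth inhibition.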
Legend:
Assay in all cases: NCI-60 cell line screen, 48 h
[1] = tested on: COLO 205 colon
[2] = tested on: OVCAR-3 ovarian
[3] = tested on: UO-31 renal
[4] = tested on: SK-OV-3 ovarian
[5] = tested on: PC-3 prostate
[6] = tested on: NCI-H23 lung
[7] = tested on: UACC-62 melanoma
[8] = tested on: CCRF-CEM leukemia
[9] = tested on: K-562 leukemia
[10] = tested on: NCI-H226 lung
[11] = tested on: ACHN renal
[12] = tested on: RXF 393 renal
[13] = tested on: MALME-3M melanoma
[14] = tested on: A498 renal
[15] = tested on: SF-539 CNS
[16] = tested on: A549 NSCLC
[17] = tested on: BT-549 breast
[18] = tested on: SK-MEL-28 melanoma
[19] = tested on: SF-268 CNS
[20] = tested on: NCI/ADR-RES ovarian
[21] = tested on: HOP-92 NSCLC
[22] = tested on: RPMI-8226 leukemia
[23] = tested on: SK-MEL-2 melanoma
[24] = tested on: NCI-H522 lung
[25] = tested on: SK-MEL-5 melanoma
[26] = tested on: HS 578T breast
[27] = tested on: LOX IMVI melanoma
[28] = tested on: SNB-75 CNS
[29] = tested on: DU-145 prostate
[30] = tested on: HT29 colon
[31] = tested on: SR leukemia
[32] = tested on: M14 melanoma
[33] = tested on: MCF7 breast
[34] = tested on: OVCAR-8 ovarian
[35] = tested on: OVCAR-4 ovarian
[36] = tested on: CAKI-1 renal
[37] = tested on: HCC-2998 colon
[38] = tested on: IGROV1 ovarian
[39] = tested on: SNB-19 CNS
[40] = tested on: HCT-15 colon
[41] = tested on: UACC-257 melanoma
[42] = tested on: MOLT-4 leukemia
[43] = tested on: HL-60(TB) leukemia
[44] = tested on: U251 CNS
[45] = tested on: 786-0 renal
[46] = tested on: MDA-MB-435
[47] = tested on: SW-620 colon
[48] = tested on: SN12C renal
[49] = tested on: TK-10 renal
[50] = tested on: SF-295 CNS
[51] = tested on: OVCAR-5 ovarian
[52] = tested on: HCT-116 colon
[53] = tested on: KM12 colon
[54] = tested on: HOP-62 NSCLC
[55] = tested on: MDA-MB-231 breast
[56] = tested on: T-47D breast
[57] = tested on: NCI-H460 lung

SMILES: COc1ccccc1CNCCCN1C(=O)c2ccc3c4c(ccc(c24)C1=O)C(=O)N(CCCN)C3=O
- GI50 [1]: 814 nM
- TGI [1]: 2120 nM
- GI50 [2]: 329 nM
- TGI [2]: 1060 nM
- GI50 [3]: 1960 nM
- TGI [3]: 5350 nM
- GI50 [4]: 2530 nM
- TGI [4]: 7180 nM
- GI50 [5]: 1680 nM
- TGI [5]: 4950 nM
- GI50 [6]: 940 nM
- TGI [6]: 3740 nM
- GI50 [7]: 422 nM
- TGI [7]: 1560 nM
- GI50 [8]: 441 nM
- TGI [8]: 2760 nM
- GI50 [9]: 751 nM
- TGI [9]: 3350 nM
- GI50 [10]: 1850 nM
- TGI [10]: 3920 nM
- GI50 [11]: 1580 nM
- TGI [11]: 4510 nM
- GI50 [12]: 628 nM
- TGI [12]: 1830 nM
- GI50 [13]: 360 nM
- TGI [13]: 1070 nM
- GI50 [14]: 1570 nM
- TGI [14]: 3040 nM
- GI50 [15]: 1210 nM
- TGI [15]: 2500 nM
- GI50 [16]: 1870 nM
- TGI [16]: 4110 nM
- GI50 [17]: 1580 nM
- TGI [17]: 2990 nM
- GI50 [18]: 1740 nM
- TGI [18]: 3750 nM
- GI50 [19]: 1220 nM
- TGI [19]: 3940 nM
- GI50 [20]: 2860 nM
- TGI [20]: 9600 nM
- GI50 [21]: 2400 nM
- TGI [21]: 5650 nM
- GI50 [22]: 1360 nM
- TGI [22]: 4520 nM
- GI50 [23]: 1460 nM
- TGI [23]: 3310 nM
- GI50 [24]: 1510 nM
- TGI [24]: 2970 nM
- GI50 [25]: 262 nM
- TGI [25]: 899 nM
- GI50 [26]: 1960 nM
- TGI [26]: 6950 nM
- GI50 [27]: 685 nM
- TGI [27]: 2870 nM
- GI50 [28]: 1360 nM
- TGI [28]: 2720 nM
- GI50 [29]: 1380 nM
- TGI [29]: 2710 nM
- GI50 [30]: 1420 nM
- TGI [30]: 3750 nM
- GI50 [31]: 243 nM
- TGI [31]: 1360 nM
- GI50 [32]: 833 nM
- TGI [32]: 2340 nM
- GI50 [33]: 329 nM
- TGI [33]: 1600 nM
- GI50 [34]: 490 nM
- TGI [34]: 3810 nM
- GI50 [35]: 230 nM
- TGI [35]: 843 nM
- GI50 [36]: 1760 nM
- TGI [36]: 4730 nM
- GI50 [37]: 1800 nM
- TGI [37]: 3580 nM
- GI50 [38]: 1350 nM
- TGI [38]: 3480 nM
- GI50 [39]: 1580 nM
- TGI [39]: 3370 nM
- GI50 [40]: 1410 nM
- TGI [40]: 3670 nM
- GI50 [41]: 740 nM
- TGI [41]: 2270 nM
- GI50 [42]: 446 nM
- TGI [42]: 2240 nM
- GI50 [43]: 826 nM
- TGI [43]: 2540 nM
- GI50 [44]: 1770 nM
- TGI [44]: 3990 nM
- GI50 [45]: 1470 nM
- TGI [45]: 4890 nM
- GI50 [46]: 196 nM
- TGI [46]: 413 nM
- GI50 [47]: 589 nM
- TGI [47]: 2330 nM
- GI50 [48]: 1290 nM
- TGI [48]: 2760 nM
- GI50 [49]: 2280 nM
- TGI [49]: 7890 nM
- GI50 [50]: 1310 nM
- TGI [50]: 2810 nM
- GI50 [51]: 1600 nM
- TGI [51]: 3560 nM
- GI50 [52]: 349 nM
- TGI [52]: 1230 nM
- GI50 [53]: 1690 nM
- TGI [53]: 3250 nM
- GI50 [54]: 1420 nM
- TGI [54]: 2950 nM
- GI50 [55]: 1670 nM
- TGI [55]: 10900 nM
- GI50 [56]: 1220 nM
- TGI [56]: 3310 nM
- GI50 [57]: 553 nM
- TGI [57]: 2160 nM
